# Experimental data reported in patent US20050101621A1, “Method for rapid detoxification of addiction” (priority 2003, published 2005).
# Experiment: general anesthesia assisted opiate detoxification with high-rate opiod antagonist infusion
# Type: in vivo, patient
# Description: Treatment begins by providing the patient with Valium, Xanax and Trazedone, which are taken orally. The patient's vitals are then monitored using such equipment as an electrocardiogram, pulse oxymeter, blood pressure monitor, ETCO2 monitor, oxygen sensor, and tidol volume monitor. An intravenous (IV) line is then set-up and general anesthesia is induced, preferably using Valium, Propofol and Mivacron. These anesthetizing agents are suited to facilitate endotracheal (ET) intubation.
# Once the anesthesia takes effect, an endotracheal tube is appropriately placed through the patient's oral cavity and the patient retrieves to spontaneous respirations over the next few minutes. A Precedex infusion is then started, preferably at […], to achieve cardiovascular stability. Next antiemetics and antiperistaltic agents are then administered. In accordance with the preferred method the antiemetics and antiperistaltic agents comprise dexamethazone somatostatin and robinul; other similar agents can be employed. An antihistamine agent, e.g., Benedryl, is then given.
# Next, a Naloxone (or its generic counterpart Narcane) infusion is started at rate of 0.6 mg/kg/hr for one hour, i.e., 0.6 mg/hr per unit of the patient's metric weight. In accordance with the present invention, Naloxone is administered at rate greater than 1.5 mg/hr. […]
smiles,measurement,setting,value
C=CCN1CC[C@]23c4c5ccc(O)c4O[C@H]2C(=O)CC[C@@]3(O)[C@H]1C5 [Naloxone],medical risk to the patient of high-rate Naloxone administration,"infusion 0.6 mg/kg/hr for one hour (30 mg/hr for 50 kg, approximately 50 mg/hr for 75 kg), patient anesthetized",does not expose a patient to a severe medical risk
same,risk to the patient of Naloxone administration,rate of 1.4 mg/kg/hr,without exposing the patient to unnecessary risks
